Laboratory results published in PMC10307035, “Antiviral activity of singlet oxygen-photogenerating perylene compounds against SARS-CoV-2: Interaction with the viral envelope and photodynamic virion inactivation” (Virus Research, 2023).

Columns and labels:
[1] = system: SARS-CoV-2 (Wuhan variant); assay: Quantification of viral RNA synthesis by RT-qPCR; assay type: cell-based; details: 10 µM, Vero cells, 48 h
[2] = system: SARS-CoV-2 (Wuhan variant); assay: Viral membrane interaction study (virus pre-treatment at 37 °C or 4 °C); assay type: cell-based; details: 10 µM; for virus' viability after pre-treatment at 4 °C (assay B): 1 h at 4 °C; for virus' ability to form plaques after pre-treatment at 37 °C (assay A): 1 h at 37 °C
[3] = system: SARS-CoV-2 (Wuhan variant); assay: Fusion assay; details: for reduction in plaque numbers (fusion assay): 1 and 10 µM, compounds added after virus attachment at 4 °C, then 37 °C

Structure (SMILES)	synthesis of viral genomic RNA [1]	virus' viability after pre-treatment at 4 °C (assay B) [2]	virus' ability to form plaques after pre-treatment at 37 °C (assay A) [2]	reduction in plaque numbers (fusion assay) [3]	cytotoxicity to Vero cells in the fusion assay ([3]; 10 µM)
CC(C)(C)C(=O)OCn1c(=O)c(C#Cc2ccc3c4cccc5cccc(c6cccc2c63)c54)cn(CC(=O)N(CCO)CCO)c1=O [Compound 13]	suppressed the synthesis of viral genomic RNA	partially restored	completely inhibited	statistically significant reduction in plaque numbers	–
O=C(NCCCCO)c1ccc(-c2ccc3c4cccc5cccc(c6cccc2c63)c54)s1 [Compound 17]	suppressed the synthesis of viral genomic RNA	partially restored	completely inhibited	statistically significant reduction in plaque numbers	observable cytotoxicity
O=c1[nH]c(=O)n([C@H]2C[C@H](O)[C@@H](CO)O2)cc1C#Cc1ccc2c3cccc4cccc(c5cccc1c52)c43 [Compound 2, 5-(perylen-3-yl)ethynyl-2′-deoxy-uridine]	suppressed the synthesis of viral genomic RNA	partially restored	completely inhibited	significantly decreased plaque counts only at 10 µM	–
